Holding throughout (format): in vivo
Assay [1] concerns Tobacco Budworm [Heliothis virescens (Fabricius)]. Kind of assay: Insecticide test, tobacco budworm 1st instar (eggs / newly hatched larvae on dipped cotton leaf). Conditions: 72 h, read-out: % kill, Tobacco Budworm 1st Instar. How it is done:
Tobacco Budworm [Heliothis virescens (Fabricius)]
A cotton plant with 2 true leaves expanded is dipped for 3 seconds with agitation in a 300 ppm solution. A 1.25 to 2 cm square of cheesecloth with about 50 to 100 budworm eggs 0-24 hours old is also dipped in the test solution and placed on one leaf to dry. The leaf with the treated budworm eggs is removed from the plant and placed in a 236.6 ml (8-oz) Dixie cup with a wet 5 cm piece of dental wick and covered with a lid. The other leaf is placed in a similar cup with a wick and a piece of cheesecloth infested with 50-100 newly hatched larvae is added before covering the cup with a lid. After 3 days at 26.7° C., observations of egg hatch are made as well as kill of newly hatched larvae, any inhibition of feeding, or interference of any sort with normal development.
(§1) Compounds rated active (8 or 9) are further tested at reduced concentrations in 50% acetone:50% water.

For assay [2], the system named is Cabbage Looper [Trichoplusia ni (Hubner)]. The assay can be described thus: Insecticide test, cabbage looper 3rd instar. Conditions: 48 h, 2 days, 26.7° C., read-out: % kill, Cabbage Looper 3rd Instar. As for the experimental part: Cabbage Looper [Trichoplusia ni (Hubner)]
A primary leaf of a cotton plant is dipped in the test solution and agitated for 3 seconds. It is then set in a hood to dry. Following this, the leaf is placed in a 10 cm petri dish containing a moist filter paper at the bottom and 10 third-instar loopers. The dish is covered and held at 26.7° C. After 2 days, mortality counts and estimates of feeding damage are recorded. Those materials showing partial kill and/or inhibition of feeding are held for another day for further observations.
as §1

Assay [3] relates to Southern Armyworm [Spodoptera eridania (Cramer)]. The assay can be described thus: whole plant or invertebrate. Conditions: for mortality at 10 ppm / mortality at 100 ppm / mortality at 1000 ppm: 48 h, read-out: % kill, Southern Armyworm 3rd Instar; for pest or weed control at 1000 µg/mL: 168 h, second leaf, 7 days from original treatment, read-out: % kill, Southern Armyworm 3rd Instar, 7 days (residual activity). How it is done: Southern Armyworm [Spodoptera eridania ([…] bean plant with just the primary leaves expanded to 7.6 to 10 cm is dipped for 3 seconds with agitation in a 1000 ppm solution and set in a hood to dry. […] The dish is covered and held at 26.7° C. After 2 days mortality counts and estimates of the amount of feeding are made. Compounds showing partial kill and/or inhibition of feeding are held for an extra day for further observations. All compounds showing activity as defined above are retested, using the second leaf on the bean plant, after an interval of 7 days from original treatment, as an assay of residual activity. Compounds rated active (8 or 9) are further tested at reduced concentrations in 50% acetone:50% water.

Assay [4] concerns Tobacco Budworm [Heliothis virescens (Fabricius)]. The assay can be described thus: whole plant or invertebrate. To be noted: 72 h, read-out: % kill, Tobacco Budworm 3rd Instar. How it is done:
Third Instar Three cotton plants with just expanded cotyledons are dipped in a 1000 ppm solution, and placed in a hood to dry. When dry, each cotyledon is cut in half and each half is placed in one of ten 29.6 ml plastic medicine cups containing a 1.25 cm dental wick saturated with water, and one third instar budworm larva is added. The cup is capped and held for 3 days at 26.7° C., after which mortality counts are made. Compounds rated active (8 or 9) are further tested at reduced concentrations in 50% acetone:50% water.

Each structure is given as a SMILES string.

As for `CCCCC(CC)C(=O)N1CC(C)(C)CN=C1NN=C(C=Cc1ccc(C(F)(F)F)cc1)C=Cc1ccc(C(F)(F)F)cc1` (stereo not shown), the mortality at 300 ppm in assay [1] was 0%. Further, in assay [2], the mortality at 10 ppm came out at 80%, the mortality at 100 ppm turned out to be 90% and the mortality at 1000 ppm is 100%. Further, in assay [3], the mortality at 10 ppm stood at 0%, the mortality at 100 ppm is 100% and the mortality at 1000 ppm turned out to be 100%. For the same compound, in assay [4], the mortality at 100 ppm came to 40% and the mortality at 1000 ppm came out at 100%.

For `CC1(C)CN=C(NN=C(C=Cc2ccc(C(F)(F)F)cc2)C=Cc2ccc(C(F)(F)F)cc2)N(C(=O)C=Cc2ccccc2)C1`, the mortality at 300 ppm in assay [1] was 0%. Further, the mortality at 1000 ppm in assay [3] amounted to 0%.

Turning to `CC1(C)CN=C(NN=C(C=Cc2ccc(C(F)(F)F)cc2)C=Cc2ccc(C(F)(F)F)cc2)N(C(=O)c2ccc(C(C)(C)C)cc2)C1`, in assay [1], the mortality at 10 ppm lay within 0 to 40%, the mortality at 100 ppm fell in the range of 0 to 40% and the mortality at 300 ppm was in the range of 86 to 95%. Moreover, in assay [2], the mortality at 10 ppm came to 0%, the mortality at 100 ppm was determined as 100% and the mortality at 1000 ppm is 100%. In addition, in assay [3], the mortality at 10 ppm was found to be 0%, the mortality at 100 ppm came out at 90%, the mortality at 1000 ppm turned out to be 100% and the pest or weed control at 1000 µg/mL worked out at 0%. Further, in assay [4], the mortality at 10 ppm was found to be 0%, the mortality at 100 ppm stood at 100% and the mortality at 1000 ppm was determined as 100%.

Turning to `CC1(C)CN=C(NN=C(C=Cc2ccc(Cl)cc2)C=Cc2ccc(Cl)cc2)N(C(=O)c2ccccc2)C1`, the mortality at 10 ppm in assay [1] was 0 to 40%; in assay [2], 0%; in assay [3], 30%. Besides, the mortality at 100 ppm in assay [1] was 41 to 60%; in assay [2] it was 100%; in assay [3], 100%; in assay [4] it was 0%. Besides, the mortality at 1000 ppm in assay [2], in assay [3] and in assay [4] was 100% throughout. In addition, the pest or weed control at 1000 µg/mL in assay [3] was 100%.

As for `O=C(c1ccccc1)N1CCCCN=C1NN=C(C=Cc1ccc(C(F)(F)F)cc1)C=Cc1ccc(C(F)(F)F)cc1`, the mortality at 300 ppm in assay [1] is 0 to 40%.

Turning to `CCCCCCCC(=O)N1CCCCN=C1NN=C(C=Cc1ccc(C(F)(F)F)cc1)C=Cc1ccc(C(F)(F)F)cc1`, in assay [1], the mortality at 300 ppm lay in the range of 0 to 40%.

Take `CCCCCCCCCCCCCCCC(=O)N1CCCCN=C1NN=C(C=Cc1ccc(C(F)(F)F)cc1)C=Cc1ccc(C(F)(F)F)cc1`: in assay [1], the mortality at 300 ppm was in the range of 0 to 40%.

With `CC(=O)N1CCCCN=C1NN=C(C=Cc1ccc(C(F)(F)F)cc1)C=Cc1ccc(C(F)(F)F)cc1`, in assay [1], the mortality at 10 ppm was in the range of 0 to 40% and the mortality at 100 ppm lay within 41 to 60%. Further, in assay [2], the mortality at 10 ppm came out at 0%, the mortality at 100 ppm turned out to be 100% and the mortality at 1000 ppm turned out to be 100%. Besides, in assay [3], the mortality at 10 ppm stood at 100%, the mortality at 100 ppm came out at 0%, the mortality at 1000 ppm turned out to be 100% and the pest or weed control at 1000 µg/mL is 100%. In assay [4], the mortality at 10 ppm was determined as 0%, the mortality at 100 ppm amounted to 70% and the mortality at 1000 ppm is 100%.

For `CC(=O)N1CC(C)(C)CN=C1N(N=C(C=Cc1ccc(C(F)(F)F)cc1)C=Cc1ccc(C(F)(F)F)cc1)C(C)=O`, in assay [2], the mortality at 10 ppm was in the range of 41 to 60%, the mortality at 100 ppm is 86 to 95% and the mortality at 1000 ppm is 100%. Further, in assay [3], the mortality at 10 ppm is 0%, the mortality at 100 ppm stood at 100%, the mortality at 1000 ppm stood at 100% and the pest or weed control at 1000 µg/mL worked out at 0%. For the same compound, in assay [4], the mortality at 100 ppm amounted to 0% and the mortality at 1000 ppm turned out to be 100%.

Consider `CC(C)=CC(=O)N1CC(C)(C)CN=C1NN=C(C=Cc1ccc(C(F)(F)F)cc1)C=Cc1ccc(C(F)(F)F)cc1` [R1=CF3, R3=(CH3)2 CCH], for which, in assay [2], the mortality at 100 ppm is 10% and the mortality at 1000 ppm worked out at 100%. In assay [3], the mortality at 100 ppm is 0%, the mortality at 1000 ppm turned out to be 100% and the pest or weed control at 1000 µg/mL amounted to 0%. Besides, in assay [4], the mortality at 100 ppm came out at 0% and the mortality at 1000 ppm was 100%.

In the case of `CC(C)C(=O)N1CC(C)(C)CN=C1NN=C(C=Cc1ccc(C(F)(F)F)cc1)C=Cc1ccc(C(F)(F)F)cc1` [R1=CF3, R3=(CH3)2 CH], the mortality at 300 ppm in assay [1] lay within 86 to 95%. The mortality at 10 ppm in assay [2], in assay [3] and in assay [4] was 0% throughout. For the same compound, the mortality at 100 ppm in assay [2] was found to be 100%; in assay [3], 100%; in assay [4], 50%. Besides, the mortality at 1000 ppm in assay [2], in assay [3] and in assay [4] was 100% throughout.

In the case of `CCCCCC(=O)N1CC(C)(C)CN=C1NN=C(C=Cc1ccc(C(F)(F)F)cc1)C=Cc1ccc(C(F)(F)F)cc1` [R1=CF3, R3=n-C5 H11], in assay [2], the mortality at 10 ppm was 0%, the mortality at 100 ppm worked out at 50% and the mortality at 1000 ppm is 100%. Also, in assay [3], the mortality at 10 ppm was 0%, the mortality at 100 ppm worked out at 100% and the mortality at 1000 ppm turned out to be 100%. Moreover, in assay [4], the mortality at 10 ppm came out at 0%, the mortality at 100 ppm stood at 70% and the mortality at 1000 ppm is 100%.

Regarding `CCCCCCCC(=O)N1CC(C)(C)CN=C1NN=C(C=Cc1ccc(C(F)(F)F)cc1)C=Cc1ccc(C(F)(F)F)cc1` [R1=CF3, R3=n-C7 H15], in assay [2], the mortality at 100 ppm is 90% and the mortality at 1000 ppm turned out to be 100%. In addition, in assay [3], the mortality at 10 ppm amounted to 0%, the mortality at 100 ppm was found to be 90% and the mortality at 1000 ppm was found to be 100%. In addition, in assay [4], the mortality at 100 ppm amounted to 0% and the mortality at 1000 ppm came to 100%.

Regarding `CCCCCCCCCC(=O)N1CC(C)(C)CN=C1NN=C(C=Cc1ccc(C(F)(F)F)cc1)C=Cc1ccc(C(F)(F)F)cc1` [R1=CF3, R3=n-C9 H19], the mortality at 10 ppm in assay [2] and in assay [4] was 0% each time. Besides, the mortality at 100 ppm in assay [2] came out at 60%; in assay [3] it was 0%; in assay [4] it was 100%. In addition, the mortality at 1000 ppm in assay [2], in assay [3] and in assay [4] was 100% each time.

With `CCCCCCCCCCCC(=O)N1CC(C)(C)CN=C1NN=C(C=Cc1ccc(C(F)(F)F)cc1)C=Cc1ccc(C(F)(F)F)cc1` [R1=CF3, R3=n-C11 H23], in assay [2], the mortality at 10 ppm is 0%, the mortality at 100 ppm was determined as 70% and the mortality at 1000 ppm is 100%. Besides, in assay [3], the mortality at 10 ppm was 0%, the mortality at 100 ppm was 100% and the mortality at 1000 ppm came out at 100%. Further, in assay [4], the mortality at 10 ppm is 0%, the mortality at 100 ppm is 70% and the mortality at 1000 ppm is 100%.

Turning to `CCCCCCCCCCCCCC(=O)N1CC(C)(C)CN=C1NN=C(C=Cc1ccc(C(F)(F)F)cc1)C=Cc1ccc(C(F)(F)F)cc1` [R1=CF3, R3=n-C13 H27], the mortality at 10 ppm in assay [2] and in assay [4] was 0% each time. Further, the mortality at 100 ppm in assay [2] was found to be 60%; in assay [3] it was 0%; in assay [4], 90%. The mortality at 1000 ppm in assay [2], in assay [3] and in assay [4] was 100% each time.

On to `CCCCCCCCCCCCCCCC(=O)N1CC(C)(C)CN=C1NN=C(C=Cc1ccc(Cl)cc1)C=Cc1ccc(Cl)cc1` [R1=Cl, R3=n-C15 H31], for which the mortality at 100 ppm in assay [2], in assay [3] and in assay [4] was 0% in each case. Also, the mortality at 1000 ppm in assay [2], in assay [3] and in assay [4] was 100% throughout. Besides, the pest or weed control at 1000 µg/mL in assay [3] was 100%.
